From patent US20080118980A1, “Estrogen Enhancing Differentiation of Human Mesenchymal Stromal Cells and Adipose-derived Stromal Cells” (The Board of Trustees of the University of Illinois,, priority 2006, published 2008)

Assays:
rat bone MSCs = assay: Proliferation of rat bone MSCs with E2 modulation (MTS, Example 4); format: cell-based; conditions: for cell proliferation (absorbance at 540 nm) vs control: 10^−9 and 10^−6 M E2, day 3, FIG. 9A; for E2 concentration of proliferation peak: day 3
Description: Three month-old, male and female Fisher 344 rats (Charles River Lab., Wilmington, Mass.) were purchased and euthanized by CO^2 inhalation. The tibias and femurs were dissected and bone marrow plugs were flushed out with a syringe (18-gauge needle), and filled with a basic medium consisting of DMEM, 10%FBS and 1% antibiotic-antimycotic. Cells were counted on a hemacytometer, plated at 5×10^7 cells/100-mm petri dish and incubated with basic DMEM medium at 37° C. in 5% CO2. The MSCs were isolated by removing unattached cells via medium exchange. The MSCs were incubated up to 80% confluence and then subcultured at a density of 10^6/100-mm dish. Prior to confluence, the MSCs were trypsinized, counted and used for measuring proliferation rate using E2 modulation.
In order to analyze the estrogen function on cell proliferation, 500 of passage-1 MSCs were placed into each well of 96-well plates and exposed to basic medium supplemented with different concentrations of E2 (10^−6M to 10^−9M) (Sigma, St. Louis, Mo.). On day 3, the cell proliferation with different estrogen modulations were quantified using a MTS calorimetric method according to manufacturer's manual (CellTiter 96® Queous One Solution Cell Proliferation Assay, Promega, Madison, Wis.)

human ASCs = assay: Adipogenic differentiation of ASCs modulated by E2 (Example 2); format: cell-based; conditions: for increase of elution of Oil-O-Red staining: vs differentiation without estrogen, FIG. 7C
Description: Because estrogen receptors (ERs) exist in adipose tissues (Dieudonne et al. (2004) Am J Physiol Cell Physiol. 286:C655-661), it is hypothesized that estrogen can also modulate the differentiation potentials of ASCs. All the experiments using human ASCs were performed under an approved IRB protocol of the University of Illinois at Chicago. Human abdomen subcutaneous adipose tissue was obtained from a healthy person with lipo-aspirated surgery. ASCs were isolated from adipose tissue according to previous studies (Hong et al. (2006) Cells Tissues Organs. 183 (3):133-40). Briefly, adipose tissue was finely minced and then digested with 0.075 wt % collagenase type I (Sigma, St Louis, Mo.) at 37° C. for 45 min with intermittent shaking. The cells were collected by filtration with a cell strainer with pore size of 100 μm diameter (Fisher Scientific, Barrington, Ill.). The harvested cells were cultured in a Dulbecco's Modified Eagle's Medium (DMEM), 15% fetal bovine serum (FBS) and 1% antibiotic-antimycotic at 10^6 cells/100 mm dish. Upon reaching 80-90% confluence, the isolated cells were trypsinized, counted, and subcultured at a density of 10^5 cells/100 mm dish as passage-1. The cells used for study are passage-3.
The basic DMEM medium supplemented with 50 nM of dexamethasone, […] and 5 mM of isobutyl-methylxanthine (IBMX) was used to differentiate ASCs into adipocytes (Hong et al. (2005) Ann Biomed Eng. 33:511-517). At 70% confluence of ASCs in 12-well plates, the basic DMEM medium was exchanged for the adipogenic differentiation medium. The effects of estrogen on adipogenic differentiation were observed after E2 supplements at concentrations ranging from 10^−8 to 10^−11M. On day 4, the cells were collected for analysis of adipogenic and ER gene expressions. On day 7, adipogenic differentiation of ASCs modulated by estrogen was analyzed by Oil-O-Red staining and quantitative measurements. Each treatment group included four samples.
On the defined day, cells cultured in 12-well plates were washed twice with phosphate buffered solution (PBS), suspended and lysed in 1% Triton-X100 solution (Sigma, St. Louis, Mo.). The collected cells were subsequently homogenized using sonication (Dismembrator Model 100, Fisher Scientific, Barrington, Ill.). The DNA content in the cells was determined by a fluorometric assay using a spectrofluorometer and DNA quantification kit (Hoechst 33258, Bio-Rad, Hercules, Calif.). The total protein concentrations of lysates were measured by a simple colorimetric assay based on the Bradford dye-binding procedure (Bio-Rad, Hercules, Calif.). The amount of protein was normalized by the unit of DNA.
After 7 days of incubation with adipogenic differentiation medium supplemented with different concentrations of E2, cultured cells were fixed in 10% neutral buffered formalin for 15 min and washed with PBS twice. Cells were immersed in a 60% Oil-O-Red solution in PBS (Sigma, St Louis, Mo.) for 60 min. In order to quantify adipogenic potentials, the images of Oil-O-Red stained at each well were randomly taken by a digital camera connected to a computer monitor. The Oil-O-Red positive cells on the screen were double-blindly counted. Five pictures were taken from each well. The cell numbers were normalized to per mm^2. Oil-O-Red dye then was eluted by 500 μl of 100% isopropanol for each well of cultured cells. The spectrophotometric absorbance of the resulting solution was quantified at 510 nm.
Total RNA was extracted from the various differentiated cells using TRizol reagent (Invitrogen, Carlsbad, Calif.). Approximately 5 μg of total RNA was converted to single stranded cDNA using a commercial cDNA synthesis kit (Invitrogen, Carlsbad, Calif.). […]

C[C@]12CC[C@@H]3c4ccc(O)cc4CC[C@H]3[C@@H]1CC[C@@H]2O [E2, 17-β estradiol]
cell proliferation (absorbance at 540 nm) vs control (rat bone MSCs; female MSCs): significantly higher | E2 concentration of proliferation peak (rat bone MSCs; female bone MSCs): 10^−6 M | cell proliferation (absorbance at 540 nm) vs control (rat bone MSCs; male MSCs): significantly higher | E2 concentration of proliferation peak (rat bone MSCs; male bone MSCs): 10^−9 M | ERβ expression (RT-PCR) (human ASCs; 4 days, FIG. 6): undetected | ERα expression (RT-PCR) (human ASCs; 4 days, no ERα band without E2 supplement, FIG. 6): expressed | DNA amount (human ASCs; 7 days adipogenic media with E2 supplements, FIG. 7A): decreased | number of Oil-O-Red positively stained cells (human ASCs; 7 days, FIG. 7B): increased | population of lipid-containing cells (human ASCs; ASCs after E2 supplement, Oil-O-Red staining): increased population | increase of elution of Oil-O-Red staining (human ASCs; estrogen 10^−8 M, 7 days): 33.9% | increase of elution of Oil-O-Red staining (human ASCs; estrogen 10^−9 M, 7 days): 25.5% | effects on adipogenesis at low concentrations (human ASCs; estrogen supplement at low concentrations): hardly observed
